Measurements from PMC8399180, “Bioactive Polyketide and Diketopiperazine Derivatives from the Mangrove-Sediment-Derived Fungus Aspergillus sp. SCSIO41407” (Molecules, 2021).
≈ marks a conversion by molar mass, not a printed value.

Legend:
[1] = Cytotoxicity against A549 cell line (MTT method); type: cell-based; settings: human, A549 cells, read-out: Cytotoxic Activities A549 (IC50)
[2] = biological target: acetylcholinesterase (AChE) (Homo sapiens, UniProt P22303); assay: AChE inhibitory activity (modified Ellman method); type: biochemical; settings: 0.1 U/mL AChE, pH 8.0, 30 °C; read-out: AChE inhibition IC50
Chain of acetylcholinesterase (AChE) (P22303 32-614, species assumed): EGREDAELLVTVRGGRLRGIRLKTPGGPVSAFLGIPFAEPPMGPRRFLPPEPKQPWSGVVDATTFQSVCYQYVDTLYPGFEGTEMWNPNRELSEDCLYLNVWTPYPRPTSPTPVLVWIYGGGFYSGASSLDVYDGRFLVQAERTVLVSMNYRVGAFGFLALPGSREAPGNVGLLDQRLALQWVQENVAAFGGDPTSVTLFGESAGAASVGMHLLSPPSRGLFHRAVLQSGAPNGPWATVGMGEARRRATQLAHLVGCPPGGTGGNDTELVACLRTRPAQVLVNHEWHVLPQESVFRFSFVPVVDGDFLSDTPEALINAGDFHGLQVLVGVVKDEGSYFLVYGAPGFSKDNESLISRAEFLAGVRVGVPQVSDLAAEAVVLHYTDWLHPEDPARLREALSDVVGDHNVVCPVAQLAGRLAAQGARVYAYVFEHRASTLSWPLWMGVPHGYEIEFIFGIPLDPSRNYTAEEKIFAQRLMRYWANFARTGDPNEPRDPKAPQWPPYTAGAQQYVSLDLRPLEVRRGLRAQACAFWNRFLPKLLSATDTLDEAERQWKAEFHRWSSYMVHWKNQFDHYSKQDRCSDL
Protocol: AChE inhibitory activity was evaluated in vitro according to the modified Ellman method. Briefly, 0.1 U/mL AChE solution was prepared by dissolving in phosphate buffer (pH 8.0). The test sample and enzyme buffer were mixed in 96-well plates and incubated for 20 min at 30 °C. Then, 5,5′-dithiobis (2-nitrobenzoic acid) and acetylthiocholine iodide were added, and the enzyme reaction was allowed to proceed for 30 min at 30 °C. AChE activity was determined by measuring the degradation of acetylthiocholine iodide to thiocholine and acetic acid at 405 nm using a microplate reader.

[3] = system: LPS-induced NF-κB activation in RAW264.7 cells; assay: Inhibition of LPS-induced NF-κB activation in RAW264.7 cells (luciferase reporter gene assay); type: cell-based; settings: for IC50: Mus musculus, luciferase reporter; for Inhibitory activity against LPS-induced NF-κB activation: compounds at 10 μM, 5 μg/mL LPS for 8 h
Protocol: The inhibitory activities of LPS-induced NF-κB activation in RAW264.7 cells was evaluated as detected by luciferase reporter gene assay as described previously. In brief, the RAW264.7 cells stably transfected with a luciferase reporter gene were plated in 96-well plates and then pretreated with testd compounds (10 μM) and BAY11-7082 (NF-κB inhibitor as positive control, 5 μM, Sigma-Aldrich) for 30 min, followed by 5 μg/mL LPS stimulation for 8 h. Cells were harvested, and luciferase activities of the triplicate tests were measured using the luciferase assay system (Promega, Madison, WI, USA).

[4] = system: RANKL-induced osteoclast differentiation in bone marrow macrophages cells (BMMCs); assay: RANKL-induced osteoclast differentiation in BMMCs (TRAP staining); type: cell-based; settings: 5 μM, 3 days, TRAP-positive multinucleated cells
Protocol: Then, the cells were fixed and stained for TRAP activity and the images were photographed using an inverted microscope (Nikon, Tokyo, Japan). Data are expressed as the mean ± SD and analyzed using GraphPad Prism 7.0 software (GraphPad, San Diego, CA, USA). Statistical differences among groups were performed using one-way analysis of variance with a Bonferroni post-hoc test. A p-value of < 0.05 was considered statistically significant.

[5] = system: methicillin-resistant Staphylococcus aureus (MRSA); assay: Antibacterial activity against MRSA (broth microdilution); type: cell-based
Protocol: The cytotoxicity of 1–8 and 10–15 against the A549 cell line was preliminarily evaluated via the MTT method as reported in our previous study, and the antibacterial activities of 1–15 against six bacterial strains, Acinetobacter baumannii (ATCC 19606), Staphylococcus aureus (ATCC 29213), Enterococcus faecalis (ATCC 29212), Klebsiella pneumoniae (ATCC 13883), MRSA, and Escherichia coli (ATCC 25922), were evaluated using a modification of the broth microdilution method.

Compound	IC50 [2]	Inhibitory activity against LPS-induced NF-κB activation [3]	other results
CCCCCCCc1c(O)cc(CC=C(C)C)c(O)c1C=O [Compound 3, flavoglaucin]	23.9 µM	–	IC50 [1]: 22.2 µM
C/C=C/C=C/CCc1c(O)cc(CC=C(C)C)c(O)c1C=O [Compound 4, isodihydroauroglaucin]	490 µM	–	–
C=CC(C)(C)c1[nH]c2ccccc2c1/C=c1\[nH]c(=O)c(=C)[nH]c1=O [Compound 14, neoechinulin B]	–	obvious inhibitory activities	IC50 [3]: 8.7 µM; Effect on RANKL-induced osteoclast differentiation [4]: suppressed RANKL-induced osteoclast differentiation
CCCCC/C=C/c1c(O)cc(CC=C(C)C)c(O)c1C=O [Compound 5, tetrahydroauroglaucin]	39.9 µM	–	–
Cc1cc(=O)c2c(O)c(C)c(O)cc2o1 [Compound 2, eugenitol]	–	–	MIC ([5]; Staphylococcus aureus, read-out: Antibacterial Activities MRSA (MIC)): 485 µM (≈ 100 µg/mL)
Gentamycin [reference compound]	–	–	Antibacterial Activities MRSA (MIC, μM) [5]: 1.4 µM
C=CC(C)(C)c1[nH]c2ccccc2c1/C=C1\NC(=O)C(=O)NC1=O [Compound 10, neoechinulin E]	–	obvious inhibitory activities	–
C/C=C/C(=O)Cc1cc(O)c(C)c(O)c1C=O [Compound 1, (E)-2,4-dihydroxy-3-methyl-6-(2-oxopent-3-en-1-yl) benzaldehyde]	–	obvious inhibitory activities	–
CCC/C=C/C=C/c1c(O)cc(CC=C(C)C)c(O)c1C=O [Compound 6, dihydroauroglaucin]	18.6 µM	–	–
C=CC(C)(C)c1[nH]c2ccccc2c1/C=C1\NC(=O)C(C)(OC)NC1=O (stereo not drawn) [Compound 11, variecolorin H]	–	obvious inhibitory activities	IC50 [3]: 19.2 µM; Effect on RANKL-induced osteoclast differentiation [4]: suppressed RANKL-induced osteoclast differentiation
